One assay has as its system S. aureus (ATCC 29213). The experiment in a line: Bacterial assay: MIC against S. aureus. It counts as cell-based, Staphylococcus aureus. The settings on record: Staphylococcus aureus, ATCC29213, read-out: minimal inhibitory concentration (MIC).
For a further assay, the system named is S. pyogenes (ATCC 51339). Description: Bacterial assay: MIC against S. pyogenes. It counts as cell-based, Streptococcus pyogenes. The settings on record: Streptococcus pyogenes, ATCC51339, read-out: minimal inhibitory concentration (MIC).

Converted amounts (≈) assume the structure as drawn.

Take `CCNC(=O)Nc1nc2cc(-c3ccc(C(C)(C)O)nc3)c(O)c(CN(C)C)c2s1` [Compound 41]: the MIC with S. aureus (ATCC 29213) and in the assay on S. pyogenes (ATCC 51339) was 16 µg/mL (≈ 37.2 µM) each time.
For `CCNC(=O)Nc1nc2cc(-c3cnc(C(C)(C)O)nc3)cc(-c3cc(CN4CCC(F)(F)C4)ccn3)c2s1` [Compound 34, 1-[7-[4-[(3,3-difluoropyrrolidin-1-yl)methyl]-2-pyridyl]-5-[2-(1-hydroxy-1-methyl-ethyl)pyrimidin-5-yl]-1,3-benzothiazol-2-yl]-3-ethyl-urea], the MIC in the assay with S. aureus (ATCC 29213) and in the assay with S. pyogenes (ATCC 51339) was ≤ 1 µg/mL in each case.
For the compound `CC(C)(O)c1ncc(-c2cc(-c3ccccn3)c3sc(NC(=O)NCCO)nc3c2)cn1` [Compound 5, 1-(2-hydroxyethyl)-3-[5-[2-(1-hydroxy-1-methyl-ethyl)pyrimidin-5-yl]-7-(2-pyridyl)-1,3-benzothiazol-2-yl]urea], the MIC is 16 µg/mL (≈ 35.5 µM) in the assay with S. aureus (ATCC 29213) and ≤ 1 µg/mL in the assay on S. pyogenes (ATCC 51339).
Turning to `CCNC(=O)Nc1nc2cc(-c3cnc(C(C)O)nc3)cc(-c3nccc(N4CCC(C)(C(=O)O)CC4)n3)c2s1` (stereo not shown) [Compound 117, 1-[2-[2-(ethylcarbamoylamino)-5-[2-(1-hydroxyethyl)pyrimidin-5-yl]-1,3-benzothiazol-7-yl]pyrimidin-4-yl]-4-methyl-piperidine-4-carboxylic acid], the MIC in the assay on S. aureus (ATCC 29213) was 16 µg/mL (≈ 28.4 µM); in the assay on S. pyogenes (ATCC 51339), ≤ 1 µg/mL.
For `CCNC(=O)Nc1nc2cc(-c3cnc(C(C)(C)O)nc3)cc(-c3cc(CN4CCN(C)CC4)ccn3)c2s1` [Compound 159, 1-ethyl-3-[5-[2-(1-hydroxy-1-methyl-ethyl)pyrimidin-5-yl]-7-[4-[(4-methylpiperazin-1-yl)methyl]-2-pyridyl]-1,3-benzothiazol-2-yl]urea], in that order: 2 µg/mL (≈ 3.66 µM) and ≤ 1 µg/mL.
The like results for `CCNC(=O)Nc1nc2cc(-c3cnc(C(C)(C)O)nc3)cc(-c3ccc(CC(=O)O)cn3)c2s1` [Compound 46, 2-[6-[2-(ethylcarbamoylamino)-5-[2-(1-hydroxy-1-methyl-ethyl)pyrimidin-5-yl]-1,3-benzothiazol-7-yl]-3-pyridyl]acetic acid] were, in that order, 4 µg/mL (≈ 8.12 µM) and 4 µg/mL (≈ 8.12 µM).
As for `CCNC(=O)Nc1nc2cc(-c3cnc(C(C)O)nc3)cc(-c3cc(C[S+](C)[O-])ccn3)c2s1` (stereo not shown) [Compound 16, 1-ethyl-3-[5-[2-(1-hydroxyethyl)pyrimidin-5-yl]-7-[4-(methylsulfinylmethyl)-2-pyridyl]-1,3-benzothiazol-2-yl]urea], the MIC in the assay with S. aureus (ATCC 29213) was 2 µg/mL (≈ 4.03 µM); in the assay with S. pyogenes (ATCC 51339) it was ≤ 1 µg/mL.
Take `CCNC(=O)Nc1nc2cc(-c3cnc(C(C)(C)O)nc3)c(NCCOC)cc2s1` [Compound 150, 1-ethyl-3-[5-[2-(1-hydroxy-1-methyl-ethyl)pyrimidin-5-yl]-6-(2-methoxyethylamino)-1,3-benzothiazol-2-yl]urea]: the MIC in the assay on S. aureus (ATCC 29213) was found to be 2 µg/mL (≈ 4.65 µM); with S. pyogenes (ATCC 51339), 8 µg/mL (≈ 18.6 µM).
Consider `CCNC(=O)Nc1nc2cc(-c3ccc(C(C)(C)O)nc3)c(O)c(CN3CCOCC3)c2s1` [Compound 44, 1-ethyl-3-[6-hydroxy-5-[6-(1-hydroxy-1-methyl-ethyl)-3-pyridyl]-7-(morpholinomethyl)-1,3-benzothiazol-2-yl]urea], for which the MIC in the assay with S. aureus (ATCC 29213) and in the assay with S. pyogenes (ATCC 51339) was 16 µg/mL (≈ 33.9 µM) in each case.
Turning to `CCNC(=O)Nc1nc2cc(-c3cnc(C(C)(C)O)nc3)cc(COC)c2s1` [Compound 13, 1-ethyl-3-[5-[2-(1-hydroxy-1-methyl-ethyl)pyrimidin-5-yl]-7-(methoxymethyl)-1,3-benzothiazol-2-yl]urea], the values for the MIC with S. aureus (ATCC 29213) and with S. pyogenes (ATCC 51339) were ≤ 1 µg/mL and 2 µg/mL (≈ 4.98 µM), respectively.
For `CCNC(=O)Nc1nc2cc(-c3cnc(C(C)O)nc3)cc(-c3nccc(N4CC(OC)C4)n3)c2s1` (stereo not shown) [Compound 93, 1-ethyl-3-[5-[2-(1-hydroxyethyl)pyrimidin-5-yl]-7-[4-(3-methoxyazetidin-1-yl)pyrimidin-2-yl]-1,3-benzothiazol-2-yl]urea], the MIC in the assay with S. aureus (ATCC 29213) and in the assay with S. pyogenes (ATCC 51339) was ≤ 1 µg/mL throughout.
